Source: patent US9850283B2, “Macrocyclic inhibitors of the PD-1/PD-L1 and CD80(B7-1)/PD-L1 protein/protein interactions” (BRISTOL-MYERS SQUIBB COMPANY, priority 2013, dated 2017)
Read-outs that look alike come from different tables or passages of the source. Positions of bridges follow the written chain, without caps; N, C: chain ends. Non-standard residues stand in square brackets, D forms with d. Residues, ends and D or L forms follow the SMILES beside them. ξ: configuration not given here. NMeIle(3ξ) = CCC(C)[C@H](NC)C(=O)O; Hyp = O=C(O)[C@@H]1C[C@@H](O)CN1; NMeF = CN[C@@H](Cc1ccccc1)C(=O)O; NMeL = CN[C@@H](CC(C)C)C(=O)O; Thr(3ξ) = CC(O)[C@H](N)C(=O)O; NMeNle = CCCC[C@H](NC)C(=O)O; NMeA = CN[C@@H](C)C(=O)O; Dab = NCC[C@H](N)C(=O)O; Dap = NC[C@H](N)C(=O)O; Sar = CNCC(=O)O

How the values were obtained:
[1] = molecular target: T1, Human PD-L1/PD-1 (Homo sapiens, UniProt Q9NZQ7); assay: HTRF PD-1-Ig/PD-L1-His binding assay (human PD-L1)
T1 construct: made in house; host or cells: HEK293T
Summary of the method: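 Steps: truncated PD-1-Ig and PD-L1-His fusions are incubated in dPBS containing 0.1% (w/v) BSA and 0.05% (v/v) Tween-20. Detection antibodies are then added (Eu cryptate anti-Ig at 1 nM final, APC anti-His at 20 nM final), and time-resolved FRET is measured.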

[2] = molecular target: T2, LK35.2-hPD-L1 cells / PE-labeled PD-1-Ig (Homo sapiens, UniProt Q9NZQ7); assay: LK35.2-hPD-L1 cell binding high-content screening assay; format: cell-based; conditions: cell binding assay, cell line not given
T2 construct: expressed in transfected cells; host or cells: LK35.2 mouse B cell line
Summary of the method: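 Mouse LK35.2 B cells stably over-expressing human PD-L1, cultured overnight, treated with compound plus PE-labeled human PD-1-Ig (1 nM final) in RPMI/10% FCS for 1 h at 37 °C. After washing, bound fluorescence quantified by high-content imaging.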

[3] = cluster symbol, read-out: HTRF IC50 cluster
[4] = cluster symbol, read-out: CBA IC50 cluster
[5] = value given instead of cluster, read-out: CBA IC50 value

T2 sequence (Q9NZQ7 19-290): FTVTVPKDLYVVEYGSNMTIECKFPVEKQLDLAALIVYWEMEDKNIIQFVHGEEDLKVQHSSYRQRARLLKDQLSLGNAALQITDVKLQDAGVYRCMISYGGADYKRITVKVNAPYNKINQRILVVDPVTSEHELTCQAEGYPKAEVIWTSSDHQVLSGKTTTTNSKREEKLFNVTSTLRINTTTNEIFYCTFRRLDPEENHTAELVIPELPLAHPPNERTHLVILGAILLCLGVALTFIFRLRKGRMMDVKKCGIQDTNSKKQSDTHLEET
T1 sequence (Q9NZQ7 with tags, fused parts or gaps): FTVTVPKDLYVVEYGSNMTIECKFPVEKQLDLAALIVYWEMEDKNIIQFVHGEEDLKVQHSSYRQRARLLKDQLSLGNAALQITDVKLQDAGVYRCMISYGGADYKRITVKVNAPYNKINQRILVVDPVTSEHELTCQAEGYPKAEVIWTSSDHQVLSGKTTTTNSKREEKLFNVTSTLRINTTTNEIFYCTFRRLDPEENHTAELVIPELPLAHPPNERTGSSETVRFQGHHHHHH

SMILES	IC50 [1, 3] [nM]	IC50 [2, 4] [nM]	IC50 [2, 5] [nM]	IC50 ([1]; value given instead of cluster, read-out: HTRF IC50 value) [nM]
CCCC[C@H]1C(=O)N(C)[C@@H](CC(C)C)C(=O)N[C@@H](CN)C(=O)N[C@H](C(=O)NCC(N)=O)CSCC(=O)N[C@@H](Cc2ccc(O)cc2)C(=O)N(C)[C@@H](C)C(=O)N[C@@H](CC(N)=O)C(=O)N2CCC[C@H]2C(=O)N[C@@H](Cc2c[nH]cn2)C(=O)N[C@@H](CCC(=O)O)C(=O)N2C[C@H](O)C[C@H]2C(=O)N[C@@H](Cc2c[nH]c3ccccc23)C(=O)N[C@@H](CCN)C(=O)N[C@@H](Cc2c[nH]c3ccccc23)C(=O)N1C [Example 5141] ({CH2CO}-Y[NMeA]NPHE[Hyp]W[Dab]W[NMeNle][NMeL][Dap]CG-NH2; thioether N-14)	0.385 to 6.74	4.78 to 72.9		
CCCC[C@H]1C(=O)N(C)[C@@H](C(C)CC)C(=O)N[C@@H](CN)C(=O)N[C@H](C(=O)NCC(N)=O)CSCC(=O)N[C@@H](Cc2ccc(O)cc2)C(=O)N(C)[C@@H](C)C(=O)N[C@@H](CC(N)=O)C(=O)N2CCC[C@H]2C(=O)N[C@@H](Cc2c[nH]cn2)C(=O)N[C@@H](CCC(=O)O)C(=O)N2C[C@H](O)C[C@H]2C(=O)N[C@@H](Cc2c[nH]c3ccccc23)C(=O)N[C@@H](CCN)C(=O)N[C@@H](Cc2c[nH]c3ccccc23)C(=O)N1C (stereo partly shown) [Example 5142] ({CH2CO}-Y[NMeA]NPHE[Hyp]W[Dab]W[NMeNle][NMeIle(3ξ)][Dap]CG-NH2; thioether N-14)	6.76 to 30.3	4.78 to 72.9		
CCCC[C@H]1C(=O)N[C@@H](CN)C(=O)N[C@H](C(=O)NCC(N)=O)CSCC(=O)N[C@@H](Cc2ccc(O)cc2)C(=O)N(C)[C@@H](C)C(=O)N[C@@H](CC(N)=O)C(=O)N2CCC[C@H]2C(=O)N[C@@H](Cc2c[nH]cn2)C(=O)N[C@@H](CCC(=O)O)C(=O)N2C[C@H](O)C[C@H]2C(=O)N[C@@H](Cc2c[nH]c3ccccc23)C(=O)N[C@@H](CCN)C(=O)N[C@@H](Cc2c[nH]c3ccccc23)C(=O)N(C)[C@@H](CC(C)C)C(=O)N1C [Example 5143] ({CH2CO}-Y[NMeA]NPHE[Hyp]W[Dab]W[NMeL][NMeNle][Dap]CG-NH2; thioether N-14)	0.385 to 6.74	4.78 to 72.9		
CCCC[C@H]1C(=O)N[C@@H](CN)C(=O)N[C@H](C(=O)NCC(N)=O)CSCC(=O)N[C@@H](Cc2ccc(O)cc2)C(=O)N(C)[C@@H](C)C(=O)N[C@@H](CC(N)=O)C(=O)N2CCC[C@H]2C(=O)N[C@@H](Cc2c[nH]cn2)C(=O)N[C@@H](CCC(=O)O)C(=O)N2C[C@H](O)C[C@H]2C(=O)N[C@@H](Cc2c[nH]c3ccccc23)C(=O)N[C@@H](CCN)C(=O)N[C@@H](Cc2c[nH]c3ccccc23)C(=O)N(C)[C@@H](Cc2ccccc2)C(=O)N1C [Example 5144] ({CH2CO}-Y[NMeA]NPHE[Hyp]W[Dab]W[NMeF][NMeNle][Dap]CG-NH2; thioether N-14)	0.385 to 6.74	0.158 to 4.71		
CCCC[C@H]1C(=O)N[C@@H](CN)C(=O)N[C@H](C(=O)NCC(N)=O)CSCC(=O)N[C@@H](Cc2ccc(O)cc2)C(=O)N(C)[C@@H](C)C(=O)N[C@@H](CC(N)=O)C(=O)N2CCC[C@H]2C(=O)N[C@@H](Cc2c[nH]cn2)C(=O)N[C@@H](CCC(=O)O)C(=O)N2C[C@H](O)C[C@H]2C(=O)N[C@@H](Cc2c[nH]c3ccccc23)C(=O)N[C@@H](CCN)C(=O)N[C@@H](Cc2c[nH]c3ccccc23)C(=O)N(C)[C@@H](C(C)CC)C(=O)N1C (stereo partly shown) [Example 5146] ({CH2CO}-Y[NMeA]NPHE[Hyp]W[Dab]W[NMeIle(3ξ)][NMeNle][Dap]CG-NH2; thioether N-14)	6.76 to 30.3	4.78 to 72.9		
CCCC[C@H]1C(=O)N(C)[C@@H](Cc2ccccc2)C(=O)N[C@@H](CN)C(=O)N[C@H](C(=O)NCC(N)=O)CSCC(=O)N[C@@H](Cc2ccc(O)cc2)C(=O)N(C)[C@@H](C)C(=O)N[C@@H](CC(N)=O)C(=O)N2CCC[C@H]2C(=O)N[C@@H](Cc2c[nH]cn2)C(=O)N[C@@H](CCC(=O)O)C(=O)N2C[C@H](O)C[C@H]2C(=O)N[C@@H](Cc2c[nH]c3ccccc23)C(=O)N[C@@H](CCN)C(=O)N[C@@H](Cc2c[nH]c3ccccc23)C(=O)N1C [Example 5147] ({CH2CO}-Y[NMeA]NPHE[Hyp]W[Dab]W[NMeNle][NMeF][Dap]CG-NH2; thioether N-14)	0.385 to 6.74	4.78 to 72.9		
CCCC[C@H]1C(=O)N(C)[C@@H](CCCC)C(=O)N[C@@H](CCCNC(=N)N)C(=O)N[C@H](C(=O)NCC(=O)NCC(N)=O)CSCC(=O)N[C@@H](Cc2ccccc2)C(=O)N(C)[C@@H](C)C(=O)N[C@@H](CC(N)=O)C(=O)N2CCC[C@H]2C(=O)N[C@@H](Cc2cnc[nH]2)C(=O)N[C@@H](CC(C)C)C(=O)N(C)CC(=O)N[C@@H](Cc2c[nH]c3ccccc23)C(=O)N[C@@H](CO)C(=O)N[C@@H](Cc2c[nH]c3ccccc23)C(=O)N1C [Example 6001] ({CH2CO}-F[NMeA]NPHL[Sar]WSW[NMeNle][NMeNle]RCGG-NH2; thioether N-14)	6.76 to 30.3	4.78 to 72.9		
CCCC[C@H]1C(=O)N(C)[C@@H](CCCC)C(=O)N[C@@H](CCCNC(=N)N)C(=O)N[C@H](C(=O)NCC(N)=O)CSCC(=O)N[C@@H](Cc2ccccc2)C(=O)N(C)[C@@H](C)C(=O)N[C@@H](CC(N)=O)C(=O)N2CCC[C@H]2C(=O)N[C@@H](Cc2cnc[nH]2)C(=O)N[C@@H](CCCNC(=N)N)C(=O)N(C)CC(=O)N[C@@H](Cc2c[nH]c3ccccc23)C(=O)N[C@@H](CO)C(=O)N[C@@H](Cc2c[nH]c3ccccc23)C(=O)N1C [Example 6003] ({CH2CO}-F[NMeA]NPHR[Sar]WSW[NMeNle][NMeNle]RCG-NH2; thioether N-14)	6.76 to 30.3		72.9	
CCCC[C@H]1C(=O)N(C)[C@@H](CCCC)C(=O)N[C@@H](CCCNC(=N)N)C(=O)N[C@H](C(=O)NCC(N)=O)CSCC(=O)N[C@@H](Cc2ccccc2)C(=O)N(C)[C@@H](C)C(=O)N[C@@H](CC(N)=O)C(=O)N2CCC[C@H]2C(=O)N[C@@H](Cc2cnc[nH]2)C(=O)N[C@@H](CCCCN)C(=O)N(C)CC(=O)N[C@@H](Cc2c[nH]c3ccccc23)C(=O)N[C@@H](CO)C(=O)N[C@@H](Cc2c[nH]c3ccccc23)C(=O)N1C [Example 6004] ({CH2CO}-F[NMeA]NPHK[Sar]WSW[NMeNle][NMeNle]RCG-NH2; thioether N-14)	6.76 to 30.3	4.78 to 72.9		
CCCC[C@H]1C(=O)N(C)[C@@H](CCCC)C(=O)N[C@@H](CCCNC(=N)N)C(=O)N[C@H](C(=O)NCC(N)=O)CSCC(=O)N[C@@H](Cc2ccccc2)C(=O)N(C)[C@@H](C)C(=O)N[C@@H](CC(N)=O)C(=O)N2CCC[C@H]2C(=O)N[C@@H](Cc2cnc[nH]2)C(=O)N[C@@H](C(C)O)C(=O)N(C)CC(=O)N[C@@H](Cc2c[nH]c3ccccc23)C(=O)N[C@@H](CO)C(=O)N[C@@H](Cc2c[nH]c3ccccc23)C(=O)N1C (stereo partly shown) [Example 6005] ({CH2CO}-F[NMeA]NPH[Thr(3ξ)][Sar]WSW[NMeNle][NMeNle]RCG-NH2; thioether N-14)	6.76 to 30.3	4.78 to 72.9		
CCCC[C@H]1C(=O)N(C)[C@@H](CCCC)C(=O)N[C@@H](CCCNC(=N)N)C(=O)N[C@H](C(=O)NCC(N)=O)CSCC(=O)N[C@@H](Cc2ccccc2)C(=O)N(C)[C@@H](C)C(=O)N[C@@H](CC(N)=O)C(=O)N2CCC[C@H]2C(=O)N[C@@H](Cc2cnc[nH]2)C(=O)N[C@@H](CCC(N)=O)C(=O)N(C)CC(=O)N[C@@H](Cc2c[nH]c3ccccc23)C(=O)N[C@@H](CO)C(=O)N[C@@H](Cc2c[nH]c3ccccc23)C(=O)N1C [Example 6006] ({CH2CO}-F[NMeA]NPHQ[Sar]WSW[NMeNle][NMeNle]RCG-NH2; thioether N-14)	6.76 to 30.3	4.78 to 72.9		
CCCC[C@H]1C(=O)N(C)[C@@H](CCCC)C(=O)N[C@@H](CCCNC(=N)N)C(=O)N[C@H](C(=O)NCC(N)=O)CSCC(=O)N[C@@H](Cc2ccccc2)C(=O)N(C)[C@@H](C)C(=O)N[C@@H](CC(N)=O)C(=O)N2CCC[C@H]2C(=O)N[C@@H](Cc2cnc[nH]2)C(=O)N[C@@H](C(C)C)C(=O)N(C)CC(=O)N[C@@H](Cc2c[nH]c3ccccc23)C(=O)N[C@@H](CO)C(=O)N[C@@H](Cc2c[nH]c3ccccc23)C(=O)N1C [Example 6007] ({CH2CO}-F[NMeA]NPHV[Sar]WSW[NMeNle][NMeNle]RCG-NH2; thioether N-14)	6.76 to 30.3	4.78 to 72.9		
CCCC[C@H]1C(=O)N(C)[C@@H](CCCC)C(=O)N[C@@H](CCCNC(=N)N)C(=O)N[C@H](C(=O)NCC(N)=O)CSCC(=O)N[C@@H](Cc2ccccc2)C(=O)N(C)[C@@H](C)C(=O)N[C@@H](CC(N)=O)C(=O)N2CCC[C@H]2C(=O)N[C@@H](Cc2cnc[nH]2)C(=O)N[C@@H](Cc2cnc[nH]2)C(=O)N(C)CC(=O)N[C@@H](Cc2c[nH]c3ccccc23)C(=O)N[C@@H](CO)C(=O)N[C@@H](Cc2c[nH]c3ccccc23)C(=O)N1C [Example 6008] ({CH2CO}-F[NMeA]NPHH[Sar]WSW[NMeNle][NMeNle]RCG-NH2; thioether N-14)	> 30.5	> 74.3		
CCCC[C@H]1C(=O)N(C)[C@@H](CCCC)C(=O)N[C@@H](CCCNC(=N)N)C(=O)N[C@H](C(=O)NCC(N)=O)CSCC(=O)N[C@@H](Cc2ccccc2)C(=O)N(C)[C@@H](C)C(=O)N[C@@H](CC(N)=O)C(=O)N2CCC[C@H]2C(=O)N[C@@H](Cc2cnc[nH]2)C(=O)N[C@@H](Cc2c[nH]c3ccccc23)C(=O)N(C)CC(=O)N[C@@H](Cc2c[nH]c3ccccc23)C(=O)N[C@@H](CO)C(=O)N[C@@H](Cc2c[nH]c3ccccc23)C(=O)N1C [Example 6009] ({CH2CO}-F[NMeA]NPHW[Sar]WSW[NMeNle][NMeNle]RCG-NH2; thioether N-14)			158	69.7
